90 molecules from a melting point compilation (Tetko et al.; mined from patent text by program, amines drawn as free bases though some values may be those of a salt) can be followed below.

Each structure is given as a SMILES string. A value given as a limit tells only on which side of the number the result lay.

As to `COC1(c2cccc(OCc3ccc(-n4ccnc4C)cc3F)c2)CCOCC1`, the melting point – broadly, the temperature, or range, at which the solid turns liquid – is 121 to 122 °C.

`CC(C)(C)c1ncc(O)cn1` returned a melting point of 132 °C.

`Cc1cc2c(c(C(=O)O)c1)OCC2` gave a melting point of 177 to 179 °C.

`O=[N+]([O-])c1ccc2c(c1)N[C@@H]1c3cc([N+](=O)[O-])ccc3C[C@H]21` (relative stereo): the melting point was 174 to 176 °C.

Regarding `CCCCOc1ccc(/C=C/c2cc(OC)cc(OC)c2)cc1`, the melting point lay within 54 to 56 °C.

`COC(=O)Nc1nc(-c2ccccc2)c(-c2nc3ccccc3c(=O)n2-c2cccc(C)c2)s1` had a melting point of 268 to 269 °C.

In the case of `CC(=O)N(C(=O)C(C)(C)C)C1CC(C)(C)N(OC(=O)C(C)(C)C)C(C)(C)C1`, the melting point is 169 to 173 °C.

As to `CNC(=O)c1cc(C(=O)O)c2cc(Cc3ccc(F)cc3)cnc2c1O`, the melting point is 203 to 205 °C.

In turn, `CCC1c2cccn2-c2ccc(F)cc2N1S(=O)(=O)c1ccc(OC)c(C)c1` (stereo not given) registered a melting point of 164 to 166 °C.

`CC(=Cc1ccc(C)cc1C)c1ccc2c(c1)C(C)(C)CCC2(C)C` displayed a melting point of 54 to 56 °C.

Molecule `COc1cc2c(cc1OC)C1CC(=O)C3CCCC3N1CC2` (stereo not given) registered a melting point of 105 to 114 °C.

In turn, `Cc1ccc2c(NCc3ccc(NC(=O)C4CCN(Cc5ccc(C(F)(F)F)cc5)CC4)cc3)nc(N(C)C)nc2c1` showed a melting point of 126 to 128 °C.

The molecule `COc1cc(C2OCCO2)cc(I)c1O` displayed a melting point of 120 to 121 °C.

Regarding `COc1ccc(C2=NN(Cc3ccccc3Cl)C(=O)[C@H]3CCCC[C@@H]23)cc1OC` (relative stereo), the melting point fell in the range of 101 to 104 °C.

In turn, `CC1(C)CCC(C)(C)c2cc(-c3cc(-c4ccc(C(=O)O)cc4O)ccc3-c3ccccc3)ccc21` showed a melting point of 183 to 185 °C.

`COc1ccc(C2=NN(Cc3ccc(O)cc3)C(=O)[C@H]3CCCC[C@@H]23)cc1OC` (relative stereo) showed a melting point of 177 to 179 °C.

`CS(=O)(=O)N1CCC(Nc2nc(Cl)nc(Nc3cccc(C(F)(F)F)c3)n2)CC1`: the melting point fell in the range of 220 to 222 °C.

`COc1ccc2c(=O)c3c(Cl)ccc([N+](=O)[O-])c3oc2c1` yielded a melting point of 211 to 213 °C.

In the case of `[N-]=[N+]=NCC1CN(c2ccc(SC(c3ccccc3)(c3ccccc3)c3ccccc3)c(F)c2)C(=O)O1` (stereo not given), the melting point fell in the range of 77 to 79 °C.

The molecule `CCCC(=O)c1cnc2cc(Nc3ccc(O)cc3C)sc2c1` registered a melting point of 228 to 230 °C.

Turning to `OC(c1ccccc1)c1nnnn1Cc1ccccc1` (stereo not given), the melting point came out at 81 °C.

The molecule `Fc1cc(F)c2c(c1)C[C@@H](n1c(CN3CCOCC3)c[nH]c1=S)CC2` had a melting point of 182 to 184 °C.

Molecule `Cn1nc(N)cc1COCc1ccccc1` came in with a melting point of 214 °C.

The molecule `CC(O)C#CC1CCC2C3CCC4CC(O[Si](c5ccccc5)(c5ccccc5)C(C)(C)C)CCC4(C)C3CCC12C` (stereo not given) had a melting point of 68 to 70 °C.

In turn, `O=c1[nH]c(-c2[nH]c3ccccc3c2Cl)no1` had a melting point of 240 to 241 °C.

With `O=Cc1cc2cc(Cl)c(Cl)cc2nc1Cl`, the melting point was in the range of 190 to 191 °C.

In the case of `COC(=O)c1c(-c2ccc(OC)cc2)ccc2ccccc12`, the melting point is 115 to 116 °C.

The molecule `COc1c(CBr)cccc1CBr` had a melting point of 83.5 to 85.5 °C.

`Cc1cc(C(=N)NO)ccc1-c1cccc(-c2nc3cc(C(=N)NO)ccc3[nH]2)c1` displayed a melting point of 295 to 297 °C.

The molecule `Cc1ncsc1C(O)c1cccc(N)c1` (stereo not given) displayed a melting point of 137 to 138 °C.

`O=C(C1CCCCC1)C1CCN(S(=O)(=O)c2ccccc2)CC1` registered a melting point of 141 to 143 °C.

Regarding `CC(=O)Nc1ccc2c(c1)OCO2`, the melting point lay within 138 to 139 °C.

Molecule `Cc1c(C(F)(F)F)cnn(-c2cc(OCC=O)c(Cl)cc2F)c1=O` yielded a melting point of 107 °C.

In turn, `O=[N+]([O-])c1cccc(Nc2nccc(-c3ccccn3)n2)c1` had a melting point of 213 to 219 °C.

The molecule `CC(SC1COC(c2ccc(C(=O)Nc3ccc(C#N)cc3)cc2)OC1)C(O)(Cn1cncn1)c1ccc(F)cc1F` (stereo not given) gave a melting point of 176 °C.

Molecule `Cc1nc2c(O[C@@H]3c4ccccc4C[C@H]3O)cccn2c1C=O` (relative stereo) came in with a melting point of 187 to 192 °C.

As for `Clc1ccc(CN2CCC(c3cc(-c4cccc(Cl)c4)[nH]n3)CC2)cc1`, the melting point lay within 156 to 157 °C.

As for `CC(C)n1nc(-c2c(NC(C)(C)C)nc(N)nc2-c2ccccc2)ccc1=O`, the melting point is 202 to 204 °C.

Consider `COc1ccc(-c2cc(=O)c3c(O)c(I)c(OC)cc3o2)cc1`, for which the melting point lay in the range of 205 to 207 °C.

`COc1ccc2c(CCC3CCN(C(=O)OC(C)(C)C)CC3)noc2c1` gave a melting point of 95 to 96 °C.

Molecule `Cc1c(C)c2ccc(OCc3ccccc3)cc2oc1=O` displayed a melting point of 131 to 135 °C.

In turn, `Cc1c(NC(=O)c2ccc(OC[C@@H]3CCCO3)cc2)ccc2c1cc(CNCC(C)(C)C)n2C` yielded a melting point of 179 °C.

`COc1ccc(C=C(CSC(C)=O)C(=O)NCCC(=O)OCc2ccccc2)cc1` yielded a melting point of 96 °C.

`CCCOc1ccc(S(C)(=O)=O)cc1-c1nc2c(CC)n(CC3CC3)nc2c(=O)[nH]1` showed a melting point of 233 to 234 °C.

Regarding `O=C(O)[C@H](CC(=NO)c1ccc2oc3ccccc3c2c1)NC(=O)C(F)(F)F`, the melting point was 128 to 130 °C.

`CN1Cc2cc(Cl)ccc2C(=O)c2cc(CC(=O)O)ccc21` displayed a melting point of 191 to 194 °C.

For `CSCS[C@H](C)[C@](O)(Cn1cncn1)c1ccc(Cl)cc1`, the melting point was 163 to 164 °C.

`CCc1nc(OC)c(NC(=O)N2CCN(c3cccc(O)c3)CC2)cc1C` came in with a melting point of 168 to 170 °C.

Turning to `COCCCCOc1ccc(OCc2ccccc2)cc1`, the melting point is 60 to 61 °C.

`CC(C)Oc1cc(-n2c(Cl)nc(C(F)(F)F)cc2=O)c(F)cc1Br` had a melting point of 102 °C.

For `CC(Cl)(Cl)C(NC(=O)c1cc(Cl)cc(Cl)c1)NC(=NS(=O)(=O)C(F)(F)F)Nc1cccnc1` (stereo not given), the melting point was 213 to 215 °C.

Regarding `CC(F)C(C)(N)C(=O)O` (stereo not given), the melting point was found to be 226 °C.

Turning to `COc1ccccc1-c1cn(-c2ccccc2)nc1O`, the melting point lay within 165 to 167 °C.

As to `CCCCCCCC(=O)c1ccc(CCO)cc1`, the melting point was 47.4 °C.

Molecule `CC1=C(C(=O)OCC2CC2)C(c2ccccc2C(F)(F)F)c2c(ccnc2OC(C)C)N1` (stereo not given) came in with a melting point of 112 to 114 °C.

Take `CCc1nc(OCc2ccc(Oc3ccc(C(F)(F)F)cc3)cc2)c(C)c(=O)n1CC`: the melting point fell in the range of 93.8 to 95.7 °C.

Consider `COC(=O)CNC(=O)c1ncccc1O`, for which the melting point lay in the range of 59 to 61 °C.

Molecule `CC(C)c1ccc(-n2ccn(-c3cccc(C(=O)O)c3)c2=O)cc1` returned a melting point of 283 to 285 °C.

`C#CC1CCN(C(=O)c2ccccc2)CC1` returned a melting point of 101 to 103 °C.

Molecule `COc1cc(OC)c(CN2CCc3cc(OCc4ccccc4)c(OC)cc3C2)c(OC)c1` gave a melting point of 129 to 131 °C.

Consider `CN(C(=O)C(C)(C)C)C1(c2ccccc2)CCNCC1`, for which the melting point came to 125 °C.

`CCOCc1nc2c(N)nc3cccnc3c2n1NC(C)C` showed a melting point of 150 to 152 °C.

`COC(=O)Cc1c(O)c(C)nn1C` came in with a melting point of 119 to 120 °C.

In turn, `O=C(Nc1ccc(-c2ncc(-c3ccc(NC(=O)C4CCCCCC4)cc3)[nH]2)cc1)c1ccc(Cl)cc1` came in with a melting point of 325 to 327 °C.

`CC(C)(C)C1OC1C(O)C1CCCCC1` (stereo not given) had a melting point of 38 to 48 °C.

`C[C@@H](n1cnc2cc(-c3ccc(C=NNO)cc3)sc2c1=O)[C@](O)(Cn1cncn1)c1ccc(F)cc1F` returned a melting point of 246 to 247 °C.

Consider `CC(C)COC[C@H](CC(C)C)NC(=O)[C@H]1O[C@@H]1C(=O)OC(C)C`, for which the melting point fell in the range of 36 to 38 °C.

Turning to `C#CC1(O)CN2CCC1CC2` (stereo not given), the melting point lay in the range of 199 to 202 °C.

In turn, `CC(C)(C)C(=O)OCc1nc(-c2cc(C(C)(C)C)c(O)c(C(C)(C)C)c2)cs1` registered a melting point of 115 to 116 °C.

As to `N=C(Nc1ccc(C(F)(F)F)cc1)c1ccc(Cl)cc1Cl`, the melting point was in the range of 108 to 109 °C.

`CCOC(=O)COc1ccc(NC(=O)OCc2ccccc2)cc1` gave a melting point of 85 to 86 °C.

`CCC(=N)NC(=O)OC` had a melting point of 87 to 93 °C.

Consider `Cc1cc2c(nc(C)n2-c2ccc(C#N)cc2)c(C)n1`, for which the melting point is 260 to 262 °C.

`CC(C)NC(=O)N1CCc2cc(S(=O)(=O)N3CC(c4ccccc4)NC3=O)ccc21` (stereo not given): the melting point was 120 to 122 °C.

As to `Cc1c(NC(=O)c2ccc(OC[C@@H]3CCCO3)cc2)ccc2cc(CNCC3CCOCC3)[nH]c12`, the melting point lay in the range of 161 to 162 °C.

As for `CCCCCCCCCCCCCCc1ccc(N(CC(=O)O)CC(=O)O)cc1`, the melting point fell in the range of 160 to 165 °C.

`NC(C=Cc1ccccc1[N+](=O)[O-])=NO` registered a melting point of 173 °C.

In turn, `CCCN(CCC)C(=O)C1CSc2ccc(N)cc21` (stereo not given) gave a melting point of 100 °C.

The molecule `CCNCCCC(O)c1ccc(NS(C)(=O)=O)cc1` (stereo not given) displayed a melting point of 174 to 176 °C.

`CCCCCCOc1cc(N(CC)CC)ccc1C1(c2c(C)n(CC)c3ccccc23)OC(=O)c2cccnc21` (stereo not given) registered a melting point of 154 to 156 °C.

The molecule `C[C@@H]1OC(=O)[C@@H](NC(=O)OC(C)(C)C)COC[C@H](Cc2ccccc2)[C@H]1OCCC(=O)N(C)C` registered a melting point of 142 to 143 °C.

Take `Cc1nc(=O)c(C)c(NCCc2cccn2C)[nH]1`: the melting point was 246 to 247 °C.

On to `CC1CN(c2ccccc2)c2ccccc2N1` (stereo not given), for which the melting point was 91 to 93 °C.

`COC(=O)[C@H](C)NC(=O)C(=O)Nc1ccccc1C(C)(C)C` gave a melting point of 60.1 to 62.1 °C.

In turn, `O=C1c2nccc(-c3ccccc3NC(=O)C(F)(F)F)c2C(=O)c2c([N+](=O)[O-])ccnc21` returned a melting point of 158 °C.

As to `CCN1c2ncc(COc3ccc(F)cc3)cc2C(=O)N(C)c2ccc(Cl)nc21`, the melting point is 143 to 144 °C.

`C=Cc1cc(Cl)c(N)c(Cl)c1` gave a melting point of 63 °C.

In turn, `Cc1cc(C(=O)O)cc(C)c1C(=O)O` showed a melting point of over 300 °C.

Turning to `CCCOc1cc(C)c(Cl)c2c(=O)c3ccccc3sc12`, the melting point was in the range of 116 to 118 °C.

For `N#Cc1cc(NC(=O)c2cc3ccccc3s2)ccc1N(CCO)CCO`, the melting point lay in the range of 163 to 168 °C.
